Source: US20220153875A1, “ANTIGEN-BINDING MOLECULE CONTAINING ANTIGEN-BINDING DOMAIN OF WHICH BINDING ACTIVITY TO ANTIGEN IS CHANGED DEPENDING ON MTA, AND LIBRARY FOR OBTAINING SAID ANTIGEN-BINDING DOMAIN” (Chugai Seiyaku Kabushiki Kaisha, priority 2019, published 2022)

How the values were obtained:
[1] = test system: HT-1376 cells; test: Uptake of extracellular MTA by MTAP-non-deficient cells HT-1376 (MTA in culture solution, LC-MS); type: in vitro ADME; conditions: HT-1376, MTA added at 100 nM, 0, 4, 24, 48, 72 hours
Method: (§1) Since the MTA concentration in the culture solution of MTAP-deficient cells increases over time, it is inferred that there is an intracellular to extracellular MTA transfer pathway. However, in MTAP-non-deficient cells. MTA concentration in the culture solution was very low (FIG. 2), despite the expected presence of ˜1 uM MTA within the cells (FIG. 1). […] Thereafter, an MTA solution was added to the culture solution so as to make the MTA concentration 100 nM, and the cells were cultured for a predetermined time (MTA: Sigma, Catalog No. D5011-100MG).

[2] = test system: SK-MES-1 cells; test: Uptake of extracellular MTA by MTAP-non-deficient cells SK-MES-1 (MTA in culture solution, LC-MS); type: in vitro ADME; conditions: SK-MES-1, MTA added at 100 nM, 0, 4, 24, 48, 72 hours
Method: as §1

## CSC[C@H]1O[C@@H](n2cnc3c(N)ncnc32)[C@H](O)[C@@H]1O (stereo in doubt) [MTA, methylthioadenosine]
[1]
  MTA concentration in the culture solution: decreased over time
[2]
  MTA concentration in the culture solution: decreased over time
